The text below walks through data of US10077238B2, “Small molecule LFA-1 inhibitors” (ALLOCYTE PHARMACEUTICALS AG, priority 2014, dated 2018).

Holding throughout (format): cell-based
Test [1] deals with T1, LFA-1 (Homo sapiens, UniProt P20701).
T1 construct: endogenous in cells; host or cells: Jurkat cells
Briefly: V well cell adhesion assay, LFA-1-mediated Jurkat cell binding to ICAM-1 (LFA-1 adhesion). Particulars: Jurkat cells on ICAM-1/Fc; mean ±SD of ≥3 independent experiments in triplicates or single experiments in triplicates. On the procedure: Cell-Based Assay to Determine the Effect of the Compounds on LFA-1-Mediated Cell Adhesion (LFA-1 Adhesion)
Purpose of the Assay: The V well cell adhesion assay measures the ability of the compounds to interfere with LFA-1-mediated binding to ICAM-1 at cellular level. The assay has been successfully used in the past to identify and characterize small molecules LFA-1 inhibitors.
Experimental Protocol: The adhesion assay was performed in Vbottom 96-well plates as described previously [Weitz-Schmidt 2012]. Briefly, the plates were coated with anti-human IgG mAb diluted in coating buffer (20 mM Tris containing 150 mM NaCl, pH 8) (1 μg/mL) and incubated overnight at 4° C. The plates were flicked out and blocked with blocking buffer (50 mM Tris base, 150 mM NaCl, 1.5% BSA (w/v), pH 7.2) at 37° C. for 90 min. Then human recombinant ICAM-1/Fc (R&D Systems) diluted in coating buffer (0.3 μg/mL) was added to each well. The plates were incubated at 37° C. for 90 min and washed with binding buffer (50 mM Tris base, 150 mM NaCl, 1.5% BSA (w/v), 2 mM MgCl2, 2 mM MnCl2, 5 mM D-glucose monohydrate, pH 7.2-7.4) to remove unbound ligand.
Jurkat cells were cultured under standard conditions as recommended by the American Type Culture collection (ATCC). The cells were fluorescently labelled with BCECF-AM in PBS (1 μg/mL) at 37° C. for 20 min in the dark, centrifuged and washed with PBS. The test compounds were dissolved in DMSO at 10 mM and serially pre-diluted in DMSO (100%) to avoid precipitation, before performing final dilution steps in binding buffer.
The labelled Jurkat cells were re-suspended in binding buffer and test compounds or solvent control were added. The DMSO concentration was kept constant in all samples (1% DMSO as final assay concentration). After 40 min at 37° C. (LFA-1 activation and compound pre-incubation step) the cell suspension (3×10^5 cells/mL in binding buffer) was pipetted up and down and transferred to the ligand-coated microtiter V well plates (30 000 cells/well). The plates were centrifuged for 4 min at room temperature (rt) at 1000 rpm (Centrifuge Eppendorf 5810 R), setting the brake off Non-adherent cells that accumulated in the center of the Vbottom were quantified using a fluorescence reader with the filter sets allowing excitation at 485 nm and quantification of emission at 535 nm. The determination of the half maximal inhibitory concentration (IC50) of the compounds was calculated using the software GraphPad Prism 6.

Another test deals with T2, VLA-4 (Homo sapiens, UniProt P05556+P13612).
T2 construct: endogenous in cells; host or cells: Jurkat cells
T2 sequence (P13612 34-1032): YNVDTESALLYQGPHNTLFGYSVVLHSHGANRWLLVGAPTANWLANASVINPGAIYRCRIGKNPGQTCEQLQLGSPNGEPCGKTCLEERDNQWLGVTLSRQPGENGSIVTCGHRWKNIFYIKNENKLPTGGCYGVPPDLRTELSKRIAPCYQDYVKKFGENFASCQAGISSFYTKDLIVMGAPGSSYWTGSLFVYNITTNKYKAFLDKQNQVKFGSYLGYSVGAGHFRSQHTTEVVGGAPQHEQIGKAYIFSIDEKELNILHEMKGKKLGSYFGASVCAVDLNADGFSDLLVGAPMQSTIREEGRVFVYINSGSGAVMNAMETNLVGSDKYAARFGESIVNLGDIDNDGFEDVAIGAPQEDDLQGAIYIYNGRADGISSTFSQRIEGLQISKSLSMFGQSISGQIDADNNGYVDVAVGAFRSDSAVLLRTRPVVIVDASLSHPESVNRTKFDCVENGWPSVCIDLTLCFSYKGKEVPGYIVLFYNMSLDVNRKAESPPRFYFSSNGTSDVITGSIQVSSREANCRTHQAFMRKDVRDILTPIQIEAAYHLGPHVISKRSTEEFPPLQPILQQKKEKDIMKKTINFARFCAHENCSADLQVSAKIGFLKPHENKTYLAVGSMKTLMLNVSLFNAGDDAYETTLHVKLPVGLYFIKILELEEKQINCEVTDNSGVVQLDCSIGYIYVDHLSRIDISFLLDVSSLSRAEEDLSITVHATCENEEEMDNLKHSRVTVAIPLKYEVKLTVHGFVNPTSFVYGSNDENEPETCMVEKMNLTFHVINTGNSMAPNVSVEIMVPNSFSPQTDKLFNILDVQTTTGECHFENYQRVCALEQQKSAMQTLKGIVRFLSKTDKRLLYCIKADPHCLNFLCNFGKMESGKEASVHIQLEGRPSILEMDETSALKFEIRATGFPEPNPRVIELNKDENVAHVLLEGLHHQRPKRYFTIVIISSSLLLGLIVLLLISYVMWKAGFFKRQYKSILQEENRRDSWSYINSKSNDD
T2 sequence (P05556 21-798): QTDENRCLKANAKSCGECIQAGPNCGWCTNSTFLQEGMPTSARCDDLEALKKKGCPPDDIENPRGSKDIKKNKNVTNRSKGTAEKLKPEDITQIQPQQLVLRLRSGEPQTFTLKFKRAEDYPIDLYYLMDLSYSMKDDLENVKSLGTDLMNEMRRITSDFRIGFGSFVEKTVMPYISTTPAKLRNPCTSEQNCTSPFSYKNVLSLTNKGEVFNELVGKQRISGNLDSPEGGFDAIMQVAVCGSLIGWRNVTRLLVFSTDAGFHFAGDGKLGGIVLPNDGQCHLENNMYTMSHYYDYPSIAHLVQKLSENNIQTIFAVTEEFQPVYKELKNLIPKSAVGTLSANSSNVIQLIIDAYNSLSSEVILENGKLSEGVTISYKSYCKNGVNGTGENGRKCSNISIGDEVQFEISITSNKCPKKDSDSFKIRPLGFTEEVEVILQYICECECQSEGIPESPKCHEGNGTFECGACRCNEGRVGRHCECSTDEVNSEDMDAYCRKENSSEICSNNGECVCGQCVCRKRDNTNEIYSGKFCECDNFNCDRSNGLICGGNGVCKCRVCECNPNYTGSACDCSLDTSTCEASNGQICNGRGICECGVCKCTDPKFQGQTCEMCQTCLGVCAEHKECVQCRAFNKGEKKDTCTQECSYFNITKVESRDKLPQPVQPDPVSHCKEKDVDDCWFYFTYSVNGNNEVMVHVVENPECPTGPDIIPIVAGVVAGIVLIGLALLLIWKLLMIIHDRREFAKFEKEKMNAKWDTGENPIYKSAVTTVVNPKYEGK
Briefly: V well cell adhesion assay, VLA-4-mediated Jurkat cell binding to VCAM-1 (VLA-4 adhesion). Particulars: Jurkat cells on VCAM-1 Fc; single experiments run in triplicates. On the procedure: Cell-Based Assay to Determine the Selectivity of the Compounds Over the Integrin VLA-4 (VLA-4 Adhesion)
Purpose of the Assay: This V well cell adhesion assay measures the effect of the compounds on VLA-4-mediated Jurkat cell binding to VCAM-1. The assay has been successfully used in the past to determine the selectivity of small molecule LFA-1 inhibitors over the integrin VLA-4.
Experimental Protocol: The adhesion assay was performed as described above for the Jurkat/ICAM-1 V well adhesion assay. Briefly, plates were coated with anti-human IgG mAb and blocked with BSA as described above. Instead of ICAM-1, recombinant human VCAM-1/CD106 Fc chimera (R&D Systems) was coated onto the plates (0.3 μg/mL in coating buffer). After incubation, labelled Jurkat cells in binding buffer were transferred to the wells (20,000 cells/well). The plates were immediately centrifuged at 1000 rpm for 4 min at rt (Centrifuge Eppendorf 5810 R) setting the brakeoff. Non-adherent cells were quantified in the tip of the Vbottom well using a fluorescence reader. IC50 values of the compounds were calculated using the software GraphPad Prism 6.

For test [2], the target named is T1, LFA-1. Briefly: Flow cytometry, mAb R7.1 binding to LFA-1 expressed on leukocytes. Particulars: Jurkat cells or human PBMCs, values of independent experiments; for inhibition at 1 µM: Jurkat. On the procedure:
Measurement of mAb R7.1 binding to LFA-1 (mAb R7.1 binding)
Purpose of the Assay: This flow cytometry assay determines the effect of the compounds on the binding of the anti-LFA-1 mAb R7.1 to LFA-1 expressed on leukocytes.
Experimental Protocol: Jurkat cells or human peripheral blood mononuclear cells (PBMCs) were resuspended in assay buffer (50 mM Tris, 150 mM NaCl, 2 mM MgCl2, 1.5% BSA and 5 mM D-glucose monohydrate, pH7.2) at 2×10^6 cells/mL and 500 μL of this cell suspension (1×10^6 cells) were transferred into polypropylene tubes containing the test compounds diluted in 500 μL assay buffer. The samples were pre-incubated at 37° C. for 40 min, and centrifuged. The supernatants were removed and FITC-labelled anti-LFA-1 mAb R7.1 and PE-labeled anti-LFA-1 mAb TS2/4 (mAb TS2/4 is not affected by alpha I allosteric inhibitor binding to LFA-1) or appropriate isotype controls were added directly to each cell pellet. The pellets were then gently pipetted up and down and incubated on ice for 30 min in the dark. After the incubation step the cells were washed twice with PBS and resuspended in PBS.
Antibody binding was analyzed by flow cytometry. Mean fluorescence intensities (MFI) were calculated using the CellQuest software. The values are expressed as % of solvent control (solvent control=100% binding).
For orientation: Flow cytometry measures light scatter and fluorescence of single cells or particles in a stream.

Test [3] has as its target T1, LFA-1. Briefly: Flow cytometry, mAb MEM148 binding to LFA-1 expressed on leukocytes. The following applies: solvent ctrl = 1, Jurkat cells or PBMCs. As for the experimental part:
Quantification of mAb MEM148 Binding to LFA-1 (mAb MEM148 Binding)
Purpose of the Assay: This flow cytometry assay determines the effect of the compounds on the binding of the conformation-sensitive anti-LFA-1 mAb MEM148 to LFA-1 expressed on leukocytes. The mAb MEM148 detects an epitope which becomes exposed in activated LFA-1 [Yuki 2012]
Experimental Protocol: The assay is performed as the flow cytometry assay described above.
Briefly, Jurkat cells or PBMCs in assay buffer (50 mM Tris, 150 mM NaCl, 1 mM CaCl2, 1 mM MgCl2, 5 mM Glucose, 1.5% BSA, pH 7.3) were pre-incubated with the compounds and appropriate positive controls for 40 min at rt. After incubation, the cell-suspension was centrifuged, the supernatant discarded and PE-labelled anti-LFA-1 mAb MEM148 was directly added to the pellets. After pipetting up and down, the tubes were incubated for 30 min. at 37° C. in the dark. The pellet was washed twice with 1 mL PBS and resuspended in PBS. Antibody binding was quantified by flow cytometry. Mean fluorescence intensities (MFI) were calculated using the CellQuest software.

Several values for one entry are separate records, joined by “and”; a condition that tells them apart may be missing. Equal entries are not always repeated.

T1 sequence (P20701 26-1170): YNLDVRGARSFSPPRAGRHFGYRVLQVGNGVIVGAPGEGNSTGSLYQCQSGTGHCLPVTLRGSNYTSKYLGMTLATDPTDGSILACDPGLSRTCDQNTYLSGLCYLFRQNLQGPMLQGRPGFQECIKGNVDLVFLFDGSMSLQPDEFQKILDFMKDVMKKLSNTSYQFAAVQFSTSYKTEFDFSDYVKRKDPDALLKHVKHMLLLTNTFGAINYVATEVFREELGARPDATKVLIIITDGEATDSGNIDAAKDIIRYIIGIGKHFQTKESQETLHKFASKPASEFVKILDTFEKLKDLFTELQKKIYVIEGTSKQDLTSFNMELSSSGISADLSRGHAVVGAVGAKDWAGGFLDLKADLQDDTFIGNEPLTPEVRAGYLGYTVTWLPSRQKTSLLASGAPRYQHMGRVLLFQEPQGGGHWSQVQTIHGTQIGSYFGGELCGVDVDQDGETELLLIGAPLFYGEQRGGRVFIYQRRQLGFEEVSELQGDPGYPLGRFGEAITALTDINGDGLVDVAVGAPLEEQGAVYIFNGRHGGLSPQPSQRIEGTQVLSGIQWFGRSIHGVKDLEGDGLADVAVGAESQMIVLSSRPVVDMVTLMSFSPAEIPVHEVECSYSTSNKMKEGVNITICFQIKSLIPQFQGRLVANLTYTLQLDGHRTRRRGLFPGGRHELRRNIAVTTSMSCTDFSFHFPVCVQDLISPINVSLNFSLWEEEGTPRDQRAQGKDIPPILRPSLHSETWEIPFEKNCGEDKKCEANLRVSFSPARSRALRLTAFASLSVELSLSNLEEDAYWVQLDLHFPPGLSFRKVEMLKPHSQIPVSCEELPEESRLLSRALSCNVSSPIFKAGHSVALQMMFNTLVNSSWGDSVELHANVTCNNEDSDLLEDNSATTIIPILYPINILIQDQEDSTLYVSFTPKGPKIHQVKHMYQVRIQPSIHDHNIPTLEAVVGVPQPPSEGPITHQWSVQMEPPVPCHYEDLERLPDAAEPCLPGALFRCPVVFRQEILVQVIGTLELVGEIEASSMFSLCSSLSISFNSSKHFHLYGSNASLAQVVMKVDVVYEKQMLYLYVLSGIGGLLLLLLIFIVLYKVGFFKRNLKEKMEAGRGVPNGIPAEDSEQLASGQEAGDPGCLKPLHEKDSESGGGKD
T1 sequence (P05107 23-769 partner): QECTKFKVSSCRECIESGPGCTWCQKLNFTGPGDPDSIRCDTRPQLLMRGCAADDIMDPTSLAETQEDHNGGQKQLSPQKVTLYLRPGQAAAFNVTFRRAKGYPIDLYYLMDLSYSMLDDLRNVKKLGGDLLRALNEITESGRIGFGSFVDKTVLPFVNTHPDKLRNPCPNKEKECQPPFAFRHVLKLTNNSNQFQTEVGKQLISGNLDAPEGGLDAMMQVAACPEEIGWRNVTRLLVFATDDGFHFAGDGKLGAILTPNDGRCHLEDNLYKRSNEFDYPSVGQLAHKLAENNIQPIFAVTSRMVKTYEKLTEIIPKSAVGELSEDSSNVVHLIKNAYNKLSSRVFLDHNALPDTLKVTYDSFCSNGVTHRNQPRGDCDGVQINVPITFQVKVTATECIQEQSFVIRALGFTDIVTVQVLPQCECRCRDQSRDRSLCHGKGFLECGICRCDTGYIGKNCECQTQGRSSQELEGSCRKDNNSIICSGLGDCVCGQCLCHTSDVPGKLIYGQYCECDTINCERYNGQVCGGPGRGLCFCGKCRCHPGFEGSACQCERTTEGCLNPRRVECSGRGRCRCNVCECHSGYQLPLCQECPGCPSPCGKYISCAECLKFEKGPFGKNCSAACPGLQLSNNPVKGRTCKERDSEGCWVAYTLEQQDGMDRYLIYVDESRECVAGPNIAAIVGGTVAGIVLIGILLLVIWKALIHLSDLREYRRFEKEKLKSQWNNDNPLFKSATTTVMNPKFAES

As for `CC12C(=O)N(c3cc(Cl)cc(Cl)c3)C(=O)C1C2(c1ccc(C#N)cc1)c1ccc(OC(F)(F)F)cc1` (single isomer, unassigned) [4i/4′i diastereomer II (racemate), rac-4-[(1 S, 5S, 6S)- and rac-4-(1 S, 5S, 6R)-3-(3,5-Dichlorophenyl)-1-methyl-2,4-dioxo-6-[4-(trifluoro-methoxy)-phenyl]-3-azabicyclo[3.1.0]hexan-6-yl]benzonitrile], the IC50 on LFA-1 [1] is 18 ± 14 nM; on VLA-4, more than 10000 nM. The inhibition at 1 µM on LFA-1 [2] worked out at 98.6%. Moreover, the “mAb MEM148 binding, binding relative to solvent ctrl at 10 μM” value on LFA-1 [3] amounted to 0.937.

As to `O=C1C2C(C(=O)N1c1cc(Cl)cc(Cl)c1)C2(c1ccncc1)c1ccc(OC(F)(F)F)cc1` (single isomer, unassigned) [4w or 4′w diastereomer I], the IC50 on LFA-1 [1] was 215 ± 134 nM; on VLA-4, more than 10000 nM. Also, on LFA-1 [2], the “mAb R7.1 binding % inhibition at 1 μM” value is 95.7%.

`N#Cc1ccc(C2(c3ccc(C#N)cc3)[C@@H]3C(=O)N(c4cc(Cl)cc(Cl)c4)C(=O)[C@@H]32)cc1` [Compound 4u, 4-[6-(4-Cyanophenyl)-3-(3,5-dichlorophenyl)-2,4-dioxo-3-azabicyclo[3.1.0]hexan-6-yl]benzonitrile] had an IC50 at LFA-1 [1] of more than 1000 nM. Further, 1 µM produced 87.1% inhibition on LFA-1 [2].

With `CCOC(=O)[C@@]1(c2ccc(Br)cc2)[C@@H]2C(=O)N(c3cc(Cl)cc(Cl)c3)C(=O)[C@@]21C` (racemic) [4′j (racemate), rac-Ethyl-(1 S, 5R, 6R)-6-(4-bromophenyl)-3-(3,5-dichlorophenyl)-1-methyl-2,4-dioxo-3-azabicyclo[3.1.0]-hexane-6-carboxylate], the figures for the half-maximal inhibitory concentration (IC50) on LFA-1 [1] and on VLA-4 were 375 ± 204 nM and more than 10000 nM, respectively. The inhibition at 1 µM at LFA-1 [2] was 93.6%. For the same molecule, at LFA-1 [3], the “mAb MEM148 binding, binding relative to solvent ctrl at 10 μM” value is on record as 0.738.

As for `CC12C(=O)N(c3cc(Cl)cc(Cl)c3)C(=O)C1C2(c1ccncc1)c1ccc(OC(F)(F)F)cc1` (single isomer, unassigned) [4x or 4′x diastereomer I (racemate), rac-(1 S, 5S, 6R)- and rac-(1 S, 5S, 6S)-3-(3,5-Dichlorophenyl)-1-methyl-6-(pyridin-4-yl)-6-[4-(trifluoromethoxy)phenyl]-3-azabicyclo[3.1.0]hexane-2,4-dione], the IC50 on LFA-1 [1] was 202 nM and 286 nM; at VLA-4, more than 10000 nM. The “mAb R7.1 binding % inhibition at 1 μM” value on LFA-1 [2] was 98.4%.

At LFA-1 [1], `CC12C(=O)N(c3cc(Cl)cc(Cl)c3)C(=O)C1C2(c1ccncc1)c1ccc(OC(F)(F)F)cc1` (single isomer, unassigned) [4x or 4′x diastereomer II (racemate), rac-(1 S, 5S, 6R)- and rac-(1 S, 5S, 6S)-3-(3,5-Dichlorophenyl)-1-methyl-6-(pyridin-4-yl)-6-[4-(trifluoromethoxy)phenyl]-3-azabicyclo[3.1.0]hexane-2,4-dione] registered an IC50 of more than 1000 nM. In addition, the “mAb R7.1 binding % inhibition at 1 μM” value on LFA-1 [2] is reported as 76.9%.

Consider `C[C@]12C(=O)N(c3cc(Cl)cc(Cl)c3)C(=O)[C@H]1C2(c1ccc(C#N)cc1)c1ccc(C#N)cc1` (racemic) [4v (racemate), rac-4-[(1S,5S)-6-(4-Cyanophenyl)-3-(3,5-dichlorophenyl)-1-methyl-2,4-dioxo-3-azabicyclo[3.1.0]hexan-6-yl]benzonitrile], for which the IC50 at LFA-1 [1] was 45 ± 14 nM; at VLA-4, more than 10000 nM.

As to `C[C@]12C(=O)N(c3cc(Cl)cc(Cl)c3)C(=O)[C@H]1[C@H]2c1ccccc1` (racemic) [4′d (racemate), rac-(1R,5S,6S)-3-(3,5-Dichlorophenyl)-1-methyl-6-phenyl-3-azabicyclo[3.1.0]hexane-2,4-dione], on LFA-1 [1], the IC50 is 1540 ± 646 nM. In addition, the inhibition at 1 µM at LFA-1 [2] turned out to be 80.5%.

For `O=C1C2C(C(=O)N1c1cc(Cl)cc(Cl)c1)C2(c1ccncc1)c1ccc(OC(F)(F)F)cc1` (single isomer, unassigned) [4w or 4′w diastereomer II], on LFA-1 [1], the half-inhibitory concentration (IC50) is more than 1000 nM. Also, at LFA-1 [2], the “mAb R7.1 binding % inhibition at 1 μM” value turned out to be 45.7%.

Molecule `O=C1[C@@H]2[C@H](C(=O)N1c1cc(Cl)cc(Cl)c1)C2(c1ccc(OC(F)(F)F)cc1)c1ccc(OC(F)(F)F)cc1` [Compound 4p, 3-(3,5-Dichlorophenyl)-6,6-bis[4-(trifluoromethoxy)phenyl]-3-azabicyclo[3.1.0.]hexane-2,4-dione] yielded an IC50 at LFA-1 [1] of more than 1000 nM. At LFA-1 [2], the inhibition at 1 µM was 74.3%.

As a reminder, the IC50 is the concentration that inhibits the measured activity by half. What is called inhibition is the change of the read-out against control, counted positive when it falls. A high value points to strong suppression.
